Tested on: 276233-004-R-J1-PDC complex spheroid viability
Test: Anticancer human tumor 276233-004-R-J1-PDC patient-derived colon adenocarcinoma cell line growth inhibition [GQUAD]
Conditions: for IC50: curve of first compound; for viability, T/C: stronger effect = lower value
From the text: DNA G-quadruplex Stabilizer Agents in Combinations in Complex Spheroids
A high-throughput screen of multi-cell type tumor spheroids was designed to identify active combinations of DNA G-quadruplex stabilizer agents and targeted small molecules. Complex spheroids include a stromal component modeled by human endothelial cells (HUVEC) and fibroblasts modeled by human mesenchymal stem cells (MSCs). The concentration ranges selected for each drug and investigational agent were based upon clinically achievable concentrations if the clinical Cmax of the agent was known.
Compounds. The drugs and investigational agents: pidnarulex (CX-5461; NSC782164), APTO-253 (NSC789042), BRACO-19 (NSC847499), peposertib (NSC802822), ceralasertib (NSC780249), elimusertib (NSC800525), camonsertib (NSC841442), AZD-1390 (NSC803789), olaparib (NSC753686), talazoparib (NSC767125), ART-558 (NSC835418), sotorasib (NSC818433), MRTX-1133 (NSC836407), SN-38 (NSC673596), topotecan (NSC609699), etoposide (NSC141540), doxorubicin (NSC123127), gemcitabine (NSC613327), 5-fluorouracil (NSC19893), paclitaxel (NSC125973), vemurafenib (NSC761431), panobinostat (NSC761190), R-306465 (JNJ-16241199; NSC773264), adavosertib (NSC754352), TP-3654 (NSC805149), carboplatin (NSC241240), KSQ-4279 (NSC840948), and staurosporine (NSC755774) were obtained from the National Cancer Institute (NCI) Developmental Therapeutics Program Chemical Repository (34). The FDA-approved anticancer drug set is available from the NCI Developmental Therapeutics Program. […] The stock solutions were prepared in dimethyl sulfoxide (DMSO, Sigma-Aldrich, St. Louis, MO, cat. D2650) at 800-fold the tested concentration and stored at -70 degrees C prior to their use. All drugs and investigational agents were tested over a range starting from a high concentration at or near the clinical Cmax and decreasing in half-log increments. If the clinical Cmax for an agent had not been determined, the highest concentration tested was 10 microM.
2.3 Cell Culture. All cells were maintained in an incubator at 37 degrees C and 5% CO2 with 95% humidity. The PDC lines were cultured according to standard operating procedures established by the NCI PDMR. All PDCs were thawed and cultured in Matrigel-coated flasks prepared with a working solution of 1X Ham's F-12 nutrient mix, without supplementation (Invitrogen, cat. 11765054), 100 U/mL penicillin-streptomycin (Invitrogen, cat. 15140122), and 2.5% Matrigel (Corning Inc., cat. 354248) for the first three passages. The 857933-349-R-J2-PDC line was cultured in 6C/Colon 1B media, which includes advanced DMEM/F-12 (Thermo Fisher Scientific, cat. 12634028), 10 mM HEPES (Thermo Fisher Scientific, cat. 15630080), 1X GlutaMAX supplement (Thermo Fisher Scientific, cat. 35050061), 0.1 mg/mL primocin (InvivoGen, cat. ant-pm-2), 10% defined fetal bovine serum, heat inactivated (HyClone Laboratories Inc., cat. SH30070.03HI), 50% L-WRN conditioned media (ATCC, cat. CRL-3276), 1.25 mM N-Acetyl-L-cysteine (Sigma-Aldrich, cat. A9165), 10 mM nicotinamide (Sigma-Aldrich, cat. N0636), 1X B-27 supplement (Thermo Fisher Scientific, cat. 17504044), 1X N-2 supplement (Thermo Fisher Scientific, cat. 17502048), 10 microM Y-27632 dihydrochloride (Tocris Bioscience, cat. 1254), and 50 ng/mL human EGF recombinant protein (Thermo Fisher Scientific, cat. PHG0311). The 485176-168-R4-J1-PDC line was cultured in Panc media, which includes all 6C/Colon 1B media components plus 100 ng/mL human FGF-10 (Thermo Fisher Scientific, cat. 100-26), 500 nM SB-431542 (Selleckchem, cat. S1067), and gastrin (Tocris, cat. 3006).
[…]

[1] = second compound 0.0316 µM, first compound 0.0316 µM
[2] = second compound 0.0316 µM, first compound 0.1 µM
[3] = second compound 0.0316 µM, first compound 0.316 µM
[4] = second compound 0.0316 µM, first compound 1 µM
[5] = second compound 0.0316 µM, first compound 3.16 µM
[6] = second compound 0.0316 µM, first compound 10 µM
[7] = second compound 0.1 µM, first compound 0.0316 µM
[8] = second compound 0.1 µM, first compound 0.1 µM
[9] = second compound 0.1 µM, first compound 0.316 µM
[10] = second compound 0.1 µM, first compound 1 µM
[11] = second compound 0.1 µM, first compound 3.16 µM
[12] = second compound 0.1 µM, first compound 10 µM
[13] = second compound 0.316 µM, first compound 0.0316 µM
[14] = second compound 0.316 µM, first compound 0.1 µM
[15] = second compound 0.316 µM, first compound 0.316 µM
[16] = second compound 0.316 µM, first compound 1 µM
[17] = second compound 0.316 µM, first compound 3.16 µM
[18] = second compound 0.316 µM, first compound 10 µM
[19] = second compound 1 µM, first compound 0.0316 µM
[20] = second compound 1 µM, first compound 0.1 µM
[21] = second compound 1 µM, first compound 0.316 µM
[22] = second compound 1 µM, first compound 1 µM
[23] = second compound 1 µM, first compound 3.16 µM
[24] = second compound 1 µM, first compound 10 µM
[25] = second compound 3.16 µM, first compound 0.0316 µM
[26] = second compound 3.16 µM, first compound 0.1 µM
[27] = second compound 3.16 µM, first compound 0.316 µM
[28] = second compound 3.16 µM, first compound 1 µM
[29] = second compound 3.16 µM, first compound 3.16 µM
[30] = second compound 3.16 µM, first compound 10 µM
[31] = second compound 10 µM, first compound 0.0316 µM
[32] = second compound 10 µM, first compound 0.1 µM
[33] = second compound 10 µM, first compound 0.316 µM
[34] = second compound 10 µM, first compound 1 µM
[35] = second compound 10 µM, first compound 3.16 µM
[36] = second compound 10 µM, first compound 10 µM
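Also: spheroids exposed to drugs for seven days.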
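For viability, T/C in this document: 100% = DMSO vehicle control viability.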

Structure (SMILES): CC(C)n1c(=O)n(C)c2cnc3cc(F)c(-c4ccc(OCCCN5CCCCC5)nc4)cc3c21 + Cc1[nH]c2ccc(F)cc2c1-c1nc2c3cccnc3c3ncccc3c2[nH]1
- IC50 (second compound 0.0316 µM): > 10 µM
- IC50 (second compound 0.1 µM): > 10 µM
- IC50 (second compound 0.316 µM): > 10 µM
- IC50 (second compound 1 µM): > 10 µM
- IC50 (second compound 3.16 µM): 3.22 µM
- IC50 (second compound 10 µM): < 0.0316 µM
- viability, T/C [1]: 98.8%
- viability, T/C [2]: 86.7%
- viability, T/C [3]: 110%
- viability, T/C [4]: 80.8%
- viability, T/C [5]: 103%
- viability, T/C [6]: 82.9%
- viability, T/C [7]: 90.9%
- viability, T/C [8]: 88.7%
- viability, T/C [9]: 85%
- viability, T/C [10]: 100%
- viability, T/C [11]: 78.2%
- viability, T/C [12]: 84.8%
- viability, T/C [13]: 88.1%
- viability, T/C [14]: 94.3%
- viability, T/C [15]: 79%
- viability, T/C [16]: 94.2%
- viability, T/C [17]: 104%
- viability, T/C [18]: 87.8%
- viability, T/C [19]: 72.8%
- viability, T/C [20]: 73.3%
- viability, T/C [21]: 82.2%
- viability, T/C [22]: 70.1%
- viability, T/C [23]: 80.8%
- viability, T/C [24]: 69.7%
- viability, T/C [25]: 52%
- viability, T/C [26]: 49.2%
- viability, T/C [27]: 55%
- viability, T/C [28]: 45.8%
- viability, T/C [29]: 50.9%
- viability, T/C [30]: 26.8%
- viability, T/C [31]: 48.7%
- viability, T/C [32]: 47%
- viability, T/C [33]: 54.9%
- viability, T/C [34]: 42%
- viability, T/C [35]: 47%
- viability, T/C [36]: 21.7%

Structure (SMILES): O=C(c1cc(Cc2n[nH]c(=O)c3ccccc23)ccc1F)N1CCN(C(=O)C2CC2)CC1 + Cc1[nH]c2ccc(F)cc2c1-c1nc2c3cccnc3c3ncccc3c2[nH]1
- IC50 (second compound 0.0316 µM): > 10 µM
- IC50 (second compound 0.1 µM): > 10 µM
- IC50 (second compound 0.316 µM): > 10 µM
- IC50 (second compound 1 µM): > 10 µM
- IC50 (second compound 3.16 µM): > 10 µM
- IC50 (second compound 10 µM): < 0.0316 µM
- viability, T/C [1]: 108%
- viability, T/C [2]: 95.4%
- viability, T/C [3]: 92.5%
- viability, T/C [4]: 73.3%
- viability, T/C [5]: 95.1%
- viability, T/C [6]: 83.4%
- viability, T/C [7]: 83.6%
- viability, T/C [8]: 90.4%
- viability, T/C [9]: 92%
- viability, T/C [10]: 90.4%
- viability, T/C [11]: 91.6%
- viability, T/C [12]: 101%
- viability, T/C [13]: 75.4%
- viability, T/C [14]: 86.2%
- viability, T/C [15]: 85%
- viability, T/C [16]: 91.1%
- viability, T/C [17]: 85.9%
- viability, T/C [18]: 81.4%
- viability, T/C [19]: 69%
- viability, T/C [20]: 79.5%
- viability, T/C [21]: 77.4%
- viability, T/C [22]: 69.7%
- viability, T/C [23]: 64.4%
- viability, T/C [24]: 83.2%
- viability, T/C [25]: 51.5%
- viability, T/C [26]: 64.2%
- viability, T/C [27]: 55.7%
- viability, T/C [28]: 55%
- viability, T/C [29]: 56.3%
- viability, T/C [30]: 59.6%
- viability, T/C [31]: 48.8%
- viability, T/C [32]: 50.9%
- viability, T/C [33]: 44.7%
- viability, T/C [34]: 50.3%
- viability, T/C [35]: 55%
- viability, T/C [36]: 51%

From PubChem BioAssay AID2060496 (Molecular Pharmacology Branch, DTP, NCI, 2025)
